According to publication PMC4109680, “Identification and Preclinical Pharmacology of the γ-Secretase Modulator BMS-869780” (International Journal of Alzheimer's Disease, 2014):
Where two headings read alike, the source gives them in different places.

Tested on: brain Aβ1-42, brain Aβ1-40, plasma Aβ1-40
Test: Rat intraperitoneal dose response, brain and plasma Aβ 5 hours after dosing
Assay type: in vivo
Conditions: for IC50: Rattus norvegicus
Protocol: IC50 determinations for Aβ1-42 and Aβ1-40 in H4-APPsw cultures in 384-well format were determined using homogeneous time-resolved fluorescence immunoassays as previously described. The principle of these assays is illustrated in Figures 1(c) and 1(d). In other experiments using H4-APPsw cultures, Aβ was quantified by ELISA; for Aβ1-42 the combination of monoclonal antibodies was 26D6 and 565-HRP; for Aβ1-40 it was TSD and 26D6-HRP, and for Aβ1-x it was 4G8 and 26D6-HRP. In some experiments a novel 4-plex Aβ electrochemiluminescence immunoassay was used (Mesoscale Discovery catalog number N45ZA-1). Briefly, the 4-plex was carried out in 96-well format, with 4 separate spots of capture antibodies in each well. The 96-well plates were prepared by the manufacturer, with spots of monoclonal antibodies for Aβ1-42, Aβ1-40, and Aβ1-38, and an additional fourth spot of streptavidin in each well. Plates were initially incubated with blocking buffer (5% BSA in phosphate buffered saline, 200 μL per well) for 2 hours at ambient temperature and then with D2A6H-biotin conjugate (50 ng/mL in 1% BSA, phosphate buffered saline, 25 μL per well) for 1 hour. Plates were then rinsed with phosphate buffered saline before addition of experimental samples for determination of Aβ1-42, Aβ1-40, Aβ1-38, and Aβ1-37 levels, following the manufacturer's instructions as for the Aβ 3-plex kit (catalog number K15148E-1). Rat brain extracts for use in the 4-plex assay were made in 0.2% diethylamine, as previously described. For detection of rat Aβ peptides in the 4-plex (Figure 5), 252Q6-sulfo-tag conjugate was used, and for detection of human Aβ peptides from cell cultures 6E10-sulfo-tag conjugate was used. For Aβ in transiently transfected PS1/PS2 dKO fibroblasts, Aβ1-42 was quantified using an ELISA kit (WACO), and Aβ1-40 was quantified by ELISA as described above for H4-APPsw cultures. For triple transgenic mice (3xTg; [63]), human transgenic Aβ1-42 was assayed in brain homogenates using an ELISA kit (WACO). For the rat and mouse experiments illustrated in Figures 7 and 8, brain samples were prepared by solid phase extraction, and endogenous rat brain Aβ1-42 and Aβ1-40 were quantified by ELISA as previously described for wild type mice. For brain extracts made using solid phase extraction, calibration of Aβ was relative, based on the approximately linear response of the assay in the range tested. For brain extracts made in 0.2% diethylamine, Aβ1-42, Aβ1-40, Aβ1-38, and Aβ1-37 concentrations in brain and cell culture samples were determined by fitting the results of immunoassays against calibration curves derived from a range of dilutions of the corresponding synthetic peptides on each assay plate using a quadratic curve fit (Graphpad Prizm 5.0). Aβ1-x was calibrated in the same way against synthetic Aβ1-40 peptide. Results were expressed in units of pM, corrected for sample dilution.
Figure 7 BMS-869780 dose response and evaluation of residual Aβ levels in rat brain. (a) Groups of rats received intraperitoneal (IP) injections of vehicle or BMS-869780 at doses of 100, 30, 10, 3, 1, and 0.3 mg/kg. Additional rats were dosed with GSI BMS-698861 at 30 mg/kg as a positive control for Aβ-lowering. Group sizes were seven rats for each dose of BMS-869780 and 14 rats for vehicle and GSI dose groups. Brain and plasma were harvested 5 hours after dosing. Brain Aβ1-42 (green), brain Aβ1-40 (blue), brain Aβ1-x (black), and plasma Aβ1-40 (red) were determined. Values are expressed as % relative to vehicle group mean. Whiskers represent standard error. ⊗Aβ1-x was not determined in the groups dosed at 3, 1, and 0.3 mg/kg. (b) Brain Aβ1-40 was plotted against brain Aβ1-42 for each rat dosed with BMS-869780 (black ▼) and for each rat dosed with vehicle (grey ●). Values are expressed as % relative to vehicle group mean. Whiskers represent standard error. […]

[1] = 3 mg/kg IP, 5 hours after dosing

SMILES: COc1cc(Nc2nc3n(n2)CCCC[C@H]3c2ccc(F)cc2)ccc1-n1cnc(Cl)c1 [BMS-869780]
- plasma Aβ1-40 lowering (0.3 mg/kg IP, 5 hours after dosing): ca. 50%
- brain Aβ1-40 lowering [1]: ca. 50%
- brain Aβ1-42 lowering [1]: ca. 50%
- residual Aβ1-40 assay signal at high plasma concentrations (best fit curve) (% relative to vehicle): 11%
- residual Aβ1-42 assay signal at high plasma concentrations (best fit curve) (% relative to vehicle): 29%
- IC50 (ip, four-parameter fit, 95% confidence interval 44–158 nM, read-out: apparent IC50 (plasma concentration) for plasma Aβ1-40): 84 nM
- IC50 (ip, four-parameter fit, 95% confidence interval 618–1053 nM, read-out: apparent IC50 (plasma concentration) for brain Aβ1-42): 807 nM
- IC50 (ip, four-parameter fit, 95% confidence interval 704–1264 nM, read-out: apparent IC50 (plasma concentration) for brain Aβ1-40): 943 nM
- IC50 (IP, 5 hours, read-out: concentration in plasma associated with 50% lowering of brain Aβ1-42): ~1000 nM
- brain Aβ1-x levels (highest three doses (10, 30, 100 mg/kg IP), 5 hours): not affected
- lowering of brain Aβ1-42 and Aβ1-40 (in mice and rats): ≥ 75%
